Format in all cases: in vivo, 'Huangjinye' tea tree variety
Assay [1] has as its system tea tree sunburn. In words: Anti-sunburn test of different concentrations of selenium: disease index, incidence and control effect after simulated sunburn. The note with it: for Incidence: foliar spray 4 days, simulated sunburn 4 h; for Disease index: foliar spray once a day for 4 days, simulated sunburn 34° C., 1600 μmol·m^−2·s^−1, 4 h; for Efficacy (control effect): calculated from disease index vs control group. As to the method: A method for preventing and/or alleviating tea tree sunburn included: • Experimental base: artificial climate chamber of Anhui Agricultural University; • Experimental subjects: ‘Huangjinye’ tea tree variety; • Experimental procedure:
2. Preparation of Na2SeO3 treatment solutions with different concentrations: 1.0, 2.0, 3.0, and 4.0 mg sodium selenite crystal powders were dissolved in 1 L of pure water (with final concentrations of 1.0, 2.0, 3.0, and 4.0 mg/L, respectively).
3. Seedling cultivation: the purchased tea seedlings were planted in a flower pot with a diameter of 20 cm, where nutrient soil, vermiculite, and perlite were at a volume ratio of 2:1:1; growth environment: temperature 28° C., humidity 80%, and light intensity 500 μmol·m^−2·s^−1.
(§1) 4. Anti-sunburn test of different concentrations of selenium: tea seedlings with roughly the same growth rate were sprayed with 0, 1.0, 2.0, 3.0, and 4.0 mg/L sodium selenite solution on the surface of their leaves at a distance of 3 cm to 5 cm from the leaves until liquid droplets were falling from the leaves, spray once a day for continuous 4 days; while a control group was sprayed with the same amount of water.
(§2) After an interval of 2 d after the end of the external treatment, the tea seedlings were placed in an artificial climate chamber (temperature: 34° C., humidity: 60%, light intensity: 1600 μmol·m^−2·s^−1) to allow simulated sunburn treatment for 4 h, and then observed, photographed, and statistics were made.
The number of leaves at each disease level was counted according to the degree of disease susceptibility, and the average incidence rate and disease index were calculated according to the formula to determine the severity of tea leaf diseases. Incidence rate=number of diseased leaves/total number of investigated leaves×100%, disease index=[Σ(number of leaves at each disease level×representative value of disease level)/(total number of investigated leaves×representative value of highest level)]×100; control effect (%)=[(control group condition index-treatment group condition index)/control group condition index]×100%.

Another assay relates to tea tree. In words: Malondialdehyde (MDA) content of tea tree leaves after spraying sodium selenite, with and without simulated sunburn. The note with it: 3 mg/L Na2SeO3 sprayed. As to the method: A method for preventing and/or alleviating tea tree sunburn included: • Experimental base: artificial climate chamber of Anhui Agricultural University; • Experimental subjects: ‘Huangjinye’ tea tree variety;
2. Preparation of Na2SeO3 treatment solution: 3.0 mg sodium selenite crystal powder was dissolved in 1 L of pure water (concentration: 3.0 mg/L).
3. Seedling growth environment: the purchased tea seedlings were planted in a flower pot with a diameter of 20 cm (nutrient soil, vermiculite, and perlite) were at a volume ratio of 2:1:1, and then placed in a glass greenhouse.
Normal growth environment: temperature 28° C., humidity 80%, and light intensity500 μmol·m^−2·s^−1.
Sunburn-simulated environment: temperature 34° C., humidity 60%, and light intensity 1,600 μmol·m^−2·s^−1.
4. […]
After sunburn treatment for 4 h, 0.5 g samples of the 3rd and 4th leaves of mature tea tree leaves were added in a mortar separately, added with 5 mL of 5% (v/v) trichloroacetic acid and ground. […] After rapid cooling and centrifugation at 4,000 r/min for 10 min, a supernatant was detected using a UV spectrophotometer at […], 600 nm, and 450 nm separately, and the data were recorded and analyzed. […]

Assay [2] has as its system tea tree sunburn. In words: Fv/Fm value of tea trees treated with exogenous selenium under sunburn. The note with it: under sunburn conditions (water treatment group: 42.09%). As to the method:
as §1, §2
Influences of different concentrations of selenium on the apparent morphology of tea trees under sunburn: compared with the selenium treatment group, the water treatment group had the largest number of burned leaves and the largest lesion area. […] The decrease in Fv/Fm value of tea trees in the 4 selenium treatment groups was smaller than that in the water treatment group, where the Fv/Fm value of the treatment with a selenium concentration of 3.0 mg/L had the minimum decrease. Moreover, external spraying of sodium selenite could indeed alleviate the tea tree sunburn, and 3.0 mg/L Na2SeO3 solution had the best effect.

[3] abbreviates: selenium concentration 1.0 mg/L.
Setting [4] is: selenium concentration 2.0 mg/L.
Where [5] appears, read: selenium concentration 3.0 mg/L.
[6] abbreviates: selenium concentration 4.0 mg/L.

Each structure is given as a SMILES string.

With `O=[Se]([O-])[O-].[Na+].[Na+]` [selenium, sodium selenite], the “Number of sunburned leaves and area of diseased spots (apparent morphology)” value in the assay with tea tree sunburn [1] (concentration of 3.0 mg/L, among the four spraying concentrations, under sunburn) was “least amount and the smallest lesion area”. Also, the “Reduction of incidence of sunburn compared with the group without selenium treatment” value was 33.83% in the assay with tea tree sunburn [1] (setting [3]), 29.62% with tea tree sunburn [1] (setting [4]), 78.14% in the assay with tea tree sunburn [1] (setting [5]) and 9.84% in the assay with tea tree sunburn [1] (setting [6]). Moreover, the Incidence in the assay with tea tree sunburn [1] (setting [3]) is listed as 12.11 ± 3.38b %; in the assay with tea tree sunburn [1] (setting [4]), 12.88 ± 0.66ab %; with tea tree sunburn [1] (setting [5]), 4.00 ± 0.00d %; in the assay on tea tree sunburn [1] (setting [6]), 16.50 ± 3.80a %. For the same compound, the Disease index with tea tree sunburn [1] (setting [3]) was 1.13 ± 0.26bc; in the assay on tea tree sunburn [1] (setting [4]), 1.13 ± 0.35bc; with tea tree sunburn [1] (setting [5]), 0.22 ± 0.08 days; in the assay on tea tree sunburn [1] (setting [6]), 1.62 ± 0.23ab. In addition, the “Efficacy (control effect)” value with tea tree sunburn [1] (setting [3]) is on record as 42.61%; in the assay with tea tree sunburn [1] (setting [4]), 42.61%; in the assay on tea tree sunburn [1] (setting [5]), 89.38%; in the assay with tea tree sunburn [1] (setting [6]), 17.58%. In addition, the “Reduction of MDA content compared with the control” value with tea tree (non-sunburn growth conditions (Se vs CK)) is recorded as 22.14%. Further, the “Decrease of MDA content compared with the water treatment group under sunburn” value in the assay on tea tree (simulated sunburn 4 h (SeH vs CKH)) is on record as 19.89%. In addition, the “Decrease of Fv/Fm value compared with the control CK” value amounted to 30.29% with tea tree sunburn [2] (setting [3]), 23.72% with tea tree sunburn [2] (setting [4]), 17.86% in the assay on tea tree sunburn [2] (setting [5]) and 34.32% in the assay on tea tree sunburn [2] (setting [6]).

Values taken from patent publication US20250204520A1, “USE OF SODIUM SELENITE IN PREVENTION AND/OR A[…] TEA TREE SUNBURN” (ANHUI AGRICULTURAL UNIVERSITY, priority 2023, published 2025).
